# Laboratory results published in patent US5272151A, “Aminoacyl and oligopeptidyl derivatives of allopurinol exhibiting immunostimulatory activity, and pharmaceutical formulations containing these substances” (Sigma-Tau Industrie Farmaceutiche Riunite S.p.A., priority 1991, dated 1993).
# Key:
# [1] = Weight survey of rats in the IL-2 test (Test 5); type: in vivo, rat; conditions: Fisher rats; 25 mg/kg daily i.p. day -5 through day -1
# Experimental: (§1) Male Fisher rats (Charles River, Italy), 3 months old, in experimental groups of 5 animals, were treated with the substances at daily dosages of 25 mg/kg from day -5 through day -1 relative to the day the spleens were sampled (day 0). The experimental procedure employed was that reported in [1]. To suspensions of splenocytes, prepared in RPMI 1640 with 10% FCS+1×10^-5 M β-mercaptoethanol and standardised to a concentration of 1×10^7 cells/mL, were added equal volumes of ConA at a concentration of 18 μg/mL/well. After incubating for 48 h at 37° C. in the presence of 5% CO2 the samples were centrifuged and the supernates collected. Serial dilutions of the supernates were added to CTLL-2 cells (a line of T-cells requiring IL-2 for growth) standardised at 5×10^4 cells/mL. Following an overnight incubation, the samples were labelled with ^3 H--TdR (0.5 μCi/well)for 6 h, then the cells were collected on filters using a cell harvester, and counted (cpm) using a β-counter. The results are expressed in units of IL-2, comparing the counts in the samples to a standard curve prepared with purified IL-2 . . . ls1.
# [2] = system: mouse peritoneal exudate cells (PECs); assay: In vitro-ex vivo phagocytic activity of mouse peritoneal exudate cells (PECs); conditions: for % Phagocytic cells: % of cells that had phagocytosed relative to potential phagocytes in PECs; for % Phagocytic cells / SRBC phagocytosed / SRBC per phagocyte: 25 mg/kg daily i.p. day -5 through day -1; for SRBC phagocytosed: average number of SRBC phagocytosed by 100 potential phagocytes; for SRBC per phagocyte: average number of SRBC phagocytosed per phagocyte
# Experimental: In vitro-ex vivo effects of ST 689 and ST 789 on phagocytic activity of mouse peritoneal exudate cells (PECs).
# Male B6 D2 F1 mice (Charles River, Italy), 6 weeks old, in experimental groups of 5 animals, were treated with the above substances i.p. at daily doses of 25 mg/kg from day -5 through day -1 relative to the day the PECs were sampled (day 0). The experimental procedure followed those described in [1] and [2]; briefly, the animals in each group were asphyxiated with CO2, the peritoneal cavities repeatedly washed, and the PECs recovered from each experimental group pooled and standardised to 4×10^6 cells/mL. Aliquots (250 μL) of phagocyte suspension were added to equal volumes of 0.4% SRBC that had been appropriately opsonised with hyperimmune serum. The samples, prepared in duplicate, were incubated for 1 h and then osmotically shocked to eliminate non-phagocytosed erythrocytes. After adjusting the osmolarity to normal values, the phagocytes were centrifuged and differentially stained. Microscopic counts of cells with phagocytic capabilities and of phagocytosed SRBC in fields of 200 cells were performed in triplicate. The results are expressed as % phagocytic cells, the average number of SRBC phagocytosed per phagocyte, and the total number of SRBC phagocytosed per 100 phagocytes.
# E. coli = assay: Protective effect in experimentally-infected immunosuppressed mice (E. coli); type: in vivo; conditions: cyclophosphamide-immunodepressed CD1 mice; 25 mg/kg/d i.p. day -5 through day -1; challenge day 0
# From the text: Evaluation of the protective effects of ST 689 and ST 789 in experimentally-infected immunosuppressed mice.
# Male CDl mice (Charles River, Italy), 6-10 weeks old, were used in experimental groups of 9-20 animals. Systemic infection in the mice was achieved by intrapcritoncal inoculation of a pathogenic species of Klebsiclla (K. oxytoca), Proteus (P. mirabilis), Serratia (S. marcescens),and Hscherichia (E. coli). Eighteen-hour broth cultures were used to prepare infectious inocula that were either sublethal (Proteus) or which corresponded to an LD30 (Serratia) and an LD10 (Escherichia, Klebsiella). The bacterial challenge, inoculated i.p. in 0.5 mL of 5% gastric mucin, was designed to cause the death of animals immunodepressed with cyclophosphamide (administered i.p. in 0.2 mL of sterile physiological solution at a dosage of 100 mg/kg) 5 days prior to infection. The compounds were administered i.p. at daily doses of 25 mg/kg from day -5 to day -1 with respect to the day of bacterial inoculation (day 0). The results are expressed as % mortality and were statistically analysed using Fisher's test (Biostatistics in Pharmacology, vol. 2, Pergamon Press).
# [3] = Body and spleen weight of rats in the chemotaxis test (Test 3); type: in vivo, rat; conditions: Fisher 344 rats; 25 mg/kg/d i.p. day -5 through day -1
# Experimental: (§2) Inbred male Fisher 344 rats (Charles River, Italy), ca. 6 months old, were used in experimental groups of 5 animals. Test animals received the compounds at dosage of 25 mg/kg daily from day -5 through day -1 relative to the day of blood sampling (day 0). The experimental procedure employed is described in Cates, L. K. et al., Modified Boyden chamber method of measuring polymorphonuclear leukocyte chemotaxis, in Leukocyte chemotaxis, Raven Press, New York, N.Y., 1978, p. 67.
# rat blood granulocytes = assay: In vitro-ex vivo chemotactic activity of rat blood granulocytes (modified Boyden chamber); conditions: for Chemotaxis (μm ± S.E.) induced: casein-induced migration; for Chemotaxis (μm ± S.E.) induced / Chemotaxis (μm ± S.E.) spontaneous: 25 mg/kg/d i.p. day -5 through day -1; for Chemotaxis (μm ± S.E.) spontaneous: spontaneous migration (Hank's medium)
# Experimental: In vitro-ex vivo effects of ST 689 and ST 789 on the chemotactic activity of rat blood granulocytes.
# as §2
# Blood was sampled from decapitated animals that, after passage through heparinised gauze, was diluted 1/1 with dextran (1.5% in physiological solution) and allowed to sediment for 90 min. The granulocytes, extracted from whole blood by the usual methods; were brought to a concentration of 2×10^6 cells/mL in Hank's medium. They were then deposited on Millipore filters (3 μm) and placed in migration chambers. These chambers contained either Hank's medium for the evaluation of spontaneous migration, or casein (2 mL of a 5 mg/mL solution) for the evaluation of induced migration. After incubating the samples for 60 min at 37° C. with 5% CO2, the Millipore filters were removed, stained, and inserted between microscope slides. Microscopic observations were performed to determine the furthest distance (in μm) traversed in controls and experimental samples by 2 granulocytes within the rectangular viewing field. Granulocytic migration is expressed as the average value of 10 detailed observations on two filters prepared from each sample.
# IL-2 = assay: In vitro-ex vivo production of IL-2 by rat splenocytes (CTLL-2 bioassay); conditions: for IL-2 in supernates from rat splenocytes: ConA-stimulated splenocytes, 48 h, 25 mg/kg daily i.p. day -5 through day -1
# Experimental: In vitro-ex vivo effect of ST 689 and ST 789 on the production of IL-2 by rat splenocytes.
# as §1
SMILES,Body weight [1] [g],Spleen weight [1] [mg],"Effect on the phagocytic capabilities of PECs, in words ([2]; 25 mg/kg daily i.p.)",% Phagocytic cells [2] [%],SRBC phagocytosed [2],SRBC per phagocyte [2],"% Mortality, E. coli (E. coli) [%]",Body wt [3] [g],Spleen wt [3] [mg],"Increase of rat granulocyte chemotaxis, in words (rat blood granulocytes; 25 mg/kg/d i.p.)",Chemotaxis (μm ± S.E.) induced (rat blood granulocytes) [μm],Chemotaxis (μm ± S.E.) spontaneous (rat blood granulocytes) [μm],IL-2 in supernates from rat splenocytes (IL-2) [U/mL],"Production of IL-2 by splenocytes, in words (IL-2; compared to the same dosage of ST 789)"
"O=c1[nH]cnc2c1cnn2CCCCCO [ST 689, 1,5-dihydro-1-(5-hydroxypentyl)-4H-pyrazolo-[3,4-d]-pyrimidin-4-one]",271.6 ± 4.76,511.0 ± 22.35,extremely positive effect,42.5 ± 0.5,229.5 ± 34.5,5.40 ± 0.90,40,358.0 ± 9.49,591.4 ± 17.13,more active than ST 789,44.8 ± 1.40,14.40 ± 0.40,183.25 ± 22.55,increase in the production of IL-2
"N=C(N)NCCC[C@H](NC(=O)OCCCCCn1cnc2c(=O)[nH]cnc21)C(=O)O [ST 789, N-alfa-5-(hypoxanthin-9-yl)-pentyloxycarbonylarginine, reference compound]",275.0 ± 3.76,539.2 ± 12.11,,31.5 ± 0.5,152.5 ± 9.5,4.85 ± 0.25,20,345.6 ± 8.84,610.0 ± 22.00,,30.4 ± 2.30,10.01 ± 1.09,98.43 ± 4.47,
